Measured values taken from ChEMBL document CHEMBL1201862, “PubChem BioAssay data set” (2004).
Active and inactive are the calls of the source.

Key:
[1] = target: T1, Microphthalmia-associated transcription factor (Homo sapiens, UniProt O75030); assay: reducers of TRPM1 reporter luminescence, concentration series – cell-based, SK-MEL-5, cherry-picked, set 3, MITF inhibitor project, dose response (AID 493073); type: functional;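 also: SK-MEL-5 melanoma cells with luciferase driven by the MITF target TRPM1 promoter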
T1 sequence (O75030 whole entry): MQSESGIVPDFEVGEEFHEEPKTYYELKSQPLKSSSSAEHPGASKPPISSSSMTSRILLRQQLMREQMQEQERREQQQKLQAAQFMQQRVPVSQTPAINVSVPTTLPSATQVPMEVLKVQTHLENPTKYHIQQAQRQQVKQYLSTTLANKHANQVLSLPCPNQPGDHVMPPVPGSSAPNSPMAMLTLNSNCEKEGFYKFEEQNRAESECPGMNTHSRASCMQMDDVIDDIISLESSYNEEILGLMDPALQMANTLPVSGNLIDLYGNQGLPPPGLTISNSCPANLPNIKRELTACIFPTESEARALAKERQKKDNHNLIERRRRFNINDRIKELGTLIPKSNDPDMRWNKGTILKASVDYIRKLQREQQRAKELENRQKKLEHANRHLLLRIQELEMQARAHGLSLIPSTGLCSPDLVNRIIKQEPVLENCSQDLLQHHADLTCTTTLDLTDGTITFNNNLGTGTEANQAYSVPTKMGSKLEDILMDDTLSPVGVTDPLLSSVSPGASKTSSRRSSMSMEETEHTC

HEK293 [2] = assay: cells; type: functional, cell-based; settings: Homo sapiens
[3] = Luminescence Cell-Based Dose Response HTS to Identify Inhibitors of 5'UTR Stem-Loop Driven Prion Protein mRNA Translation in H4 Neuroglioblastoma Cells. [Related pubchem assays: 1827 (Project Summary), 1813 (Primary HTS)]; type: functional
cells = type: functional
[4] = luciferase reporter signal suppression in cells – H4 neuroglioma cells, luminescence, dose response (AID 1990); type: functional, cell-based
HEK293 [5] = assay: cells; type: functional, cell-based; settings: Homo sapiens; remark: listed apart in the source
[6] = alpha-synuclein stem-loop luciferase translation blockers – H4 neuroglioma cells, luminescence, confirmation (AID 1988); type: functional, cell-based
BJ [7] = assay: growth inhibition of engineered Ras-driven BJ cells – cell-based, alamar blue fluorescence, cherrypicked samples, dose response (AID 2631); type: functional; settings: Homo sapiens;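 also: confirmatory dose-response assay in RAS-dependent BJ fibroblasts engineered with TERT, LT and ST, with cytotoxicity read by fluorescence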
BJ [8] = assay: BJ-TERT fibroblast viability loss – cell-based, RAS-independent, luminescence, dose response (AID 1933); type: functional; settings: Homo sapiens
[9] = DRD fibroblast viability loss – cell-based, non-viral oncogenic, luminescence, dose response (AID 1934); type: functional; settings: Homo sapiens
BJ [10] = assay: BJ-TERT-LT-ST fibroblast viability loss – cell-based, RAS-independent, luminescence, dose response (AID 1935); type: functional; settings: Homo sapiens;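 also: BJ fibroblasts immortalized with TERT plus LT and ST oncogenes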
INS1 = assay: INS-1E survival protection against cytokine death – cell-based, luminescence, retest, dose response (AID 449756); type: functional; settings: Rattus norvegicus;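 also: cell death triggered by IL-1 beta plus TNF-alpha plus IFN-gamma mixture; protective hits raise ATP signal compared with cytokine alone wells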
[11] = Vero E6 cell cytotoxicity, dose response, cytotoxicity control for non-replicating M. tuberculosis project, secondary assay (AID 492998); type: functional, VeroE6; settings: Vero C1008
[12] = THP-1 cell cytotoxicity, dose response, cytotoxicity control for non-replicating M. tuberculosis project (AID 489025); type: functional
HEK293 [13] = assay: inhibition of NOD1-driven NF-kB reporter – cell-based, luminescence, uHTS, primary screen (AID 1578); type: functional; settings: Homo sapiens
[14] = target: Nucleotide-binding oligomerization domain-containing protein 2 (Homo sapiens, UniProt Q9HC29); assay: inhibition of NOD2-driven NF-kB reporter – cell-based, luminescence, uHTS, HEK293 (AID 1566); type: functional
Nucleotide-binding oligomerization domain-containing protein 2, sequence (Q9HC29 whole entry, the tested form may be a part): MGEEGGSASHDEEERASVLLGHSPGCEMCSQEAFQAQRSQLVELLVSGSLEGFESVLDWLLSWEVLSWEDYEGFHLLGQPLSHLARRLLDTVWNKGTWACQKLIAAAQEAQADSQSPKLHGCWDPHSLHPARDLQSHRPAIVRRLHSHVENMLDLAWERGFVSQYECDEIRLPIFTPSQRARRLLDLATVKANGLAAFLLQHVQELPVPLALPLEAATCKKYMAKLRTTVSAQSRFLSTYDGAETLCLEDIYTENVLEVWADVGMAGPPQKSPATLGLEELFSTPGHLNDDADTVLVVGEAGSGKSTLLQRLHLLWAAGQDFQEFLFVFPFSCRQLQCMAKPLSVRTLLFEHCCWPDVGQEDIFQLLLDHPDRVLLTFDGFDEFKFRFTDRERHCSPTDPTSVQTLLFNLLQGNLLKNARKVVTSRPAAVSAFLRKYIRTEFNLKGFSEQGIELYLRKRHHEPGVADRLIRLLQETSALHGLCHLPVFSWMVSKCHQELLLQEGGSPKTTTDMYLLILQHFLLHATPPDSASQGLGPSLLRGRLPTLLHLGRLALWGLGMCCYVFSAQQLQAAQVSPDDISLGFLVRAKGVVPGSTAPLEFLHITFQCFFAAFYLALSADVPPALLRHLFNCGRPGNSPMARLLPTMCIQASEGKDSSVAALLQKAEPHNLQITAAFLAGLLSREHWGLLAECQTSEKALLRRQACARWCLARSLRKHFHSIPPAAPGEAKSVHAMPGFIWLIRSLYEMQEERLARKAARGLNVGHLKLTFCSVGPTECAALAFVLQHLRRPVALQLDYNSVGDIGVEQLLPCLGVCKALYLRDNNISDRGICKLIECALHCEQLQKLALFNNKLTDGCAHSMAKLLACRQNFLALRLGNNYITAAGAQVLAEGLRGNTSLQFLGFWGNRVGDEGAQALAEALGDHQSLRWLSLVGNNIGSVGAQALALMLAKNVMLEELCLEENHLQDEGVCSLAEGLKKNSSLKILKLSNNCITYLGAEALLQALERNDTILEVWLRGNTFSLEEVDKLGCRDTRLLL

[15] = HepG2 cell cytotoxicity, dose response, cytotoxicity control for non-replicating M. tuberculosis project (AID 489018); type: functional; settings: Mycobacterium tuberculosis
BJ [16] = assay: cells; type: functional, cell-based; settings: Homo sapiens
HEK293 [17] = assay: cells; type: functional, cell-based; settings: Homo sapiens; remark: listed apart in the source
HEK293 [18] = assay: NOD2 signaling inhibitors in MDP-stimulated cells, cell-based, uHTS, luminescence (AID 2001); type: functional; settings: Homo sapiens
Coagulation factor XII = target: T2, Coagulation factor XII (Homo sapiens, UniProt P00748); type: functional;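 also: activated factor XIIa alpha cleaving a fluorogenic AMC peptide substrate; inhibitor potency from loss of enzyme activity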
T2 sequence (P00748 whole entry): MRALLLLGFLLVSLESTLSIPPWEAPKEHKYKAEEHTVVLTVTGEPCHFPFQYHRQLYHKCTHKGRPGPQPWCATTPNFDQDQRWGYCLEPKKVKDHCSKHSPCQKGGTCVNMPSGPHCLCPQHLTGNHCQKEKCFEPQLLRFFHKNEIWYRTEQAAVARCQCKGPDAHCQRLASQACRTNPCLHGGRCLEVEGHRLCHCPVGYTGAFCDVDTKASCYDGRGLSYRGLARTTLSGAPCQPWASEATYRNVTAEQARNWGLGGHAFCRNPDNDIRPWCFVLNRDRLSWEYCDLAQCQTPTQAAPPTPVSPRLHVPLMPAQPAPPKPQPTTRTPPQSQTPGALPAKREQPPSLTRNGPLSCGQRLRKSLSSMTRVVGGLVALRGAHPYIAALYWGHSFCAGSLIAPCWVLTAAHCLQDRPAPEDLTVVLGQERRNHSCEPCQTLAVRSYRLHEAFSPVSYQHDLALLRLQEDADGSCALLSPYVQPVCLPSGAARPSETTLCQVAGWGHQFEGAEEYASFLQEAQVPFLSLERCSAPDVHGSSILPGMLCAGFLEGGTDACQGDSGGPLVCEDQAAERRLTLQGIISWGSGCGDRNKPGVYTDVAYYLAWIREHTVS

[19] = reduction of Shn3 3'UTR-driven luciferase in osteoblasts – cell-based, Clone20 osteoblasts, firefly luciferase, cherry-picked, dose response (AID 624132); type: functional;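 also: firefly luciferase luminescence from reporter carrying the Shn3 3'UTR in osteoblasts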
[20] = loss of viability in HepG2 cells – cell-based, CellTiter-Glo, cherry-picked, cytotoxicity control for Shn3 inhibitor project, dose response (AID 624134); type: functional
Cytochrome P450 3A4 = Cytochrome P450 3A4 (Homo sapiens, UniProt P08684);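 also: CYP3A4 tested as one member of a cytochrome P450 panel screen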
Cytochrome P450 3A4, sequence (P08684 whole entry): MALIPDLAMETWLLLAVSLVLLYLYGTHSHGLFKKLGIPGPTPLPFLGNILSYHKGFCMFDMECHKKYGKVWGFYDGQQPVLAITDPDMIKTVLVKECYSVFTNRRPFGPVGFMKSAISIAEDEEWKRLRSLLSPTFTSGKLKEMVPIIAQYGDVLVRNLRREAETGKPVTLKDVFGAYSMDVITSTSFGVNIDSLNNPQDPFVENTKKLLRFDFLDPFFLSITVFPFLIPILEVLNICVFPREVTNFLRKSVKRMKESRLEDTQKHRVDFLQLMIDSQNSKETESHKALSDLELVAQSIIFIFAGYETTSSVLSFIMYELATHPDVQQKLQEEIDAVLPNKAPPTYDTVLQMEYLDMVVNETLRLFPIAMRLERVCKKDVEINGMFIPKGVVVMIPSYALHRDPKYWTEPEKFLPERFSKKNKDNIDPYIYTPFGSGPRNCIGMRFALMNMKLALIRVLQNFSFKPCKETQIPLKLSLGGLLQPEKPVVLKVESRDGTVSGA

[21] = target: T3, Heat shock factor protein 1 (Mus musculus, UniProt P38532); assay: enhancement of HSF1-driven luciferase signal – cell-based, NIH3T3, luminescence, dose retest, confirmation (AID 435004); type: functional;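 also: stress induced by proteasome inhibitor MG132 added 30 min after compound; luciferase reporter driven by HSF1 response element in NIH3T3 cells; actives raise luminescence as potentiators of the MG132 stress response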
T3 sequence (P38532 whole entry): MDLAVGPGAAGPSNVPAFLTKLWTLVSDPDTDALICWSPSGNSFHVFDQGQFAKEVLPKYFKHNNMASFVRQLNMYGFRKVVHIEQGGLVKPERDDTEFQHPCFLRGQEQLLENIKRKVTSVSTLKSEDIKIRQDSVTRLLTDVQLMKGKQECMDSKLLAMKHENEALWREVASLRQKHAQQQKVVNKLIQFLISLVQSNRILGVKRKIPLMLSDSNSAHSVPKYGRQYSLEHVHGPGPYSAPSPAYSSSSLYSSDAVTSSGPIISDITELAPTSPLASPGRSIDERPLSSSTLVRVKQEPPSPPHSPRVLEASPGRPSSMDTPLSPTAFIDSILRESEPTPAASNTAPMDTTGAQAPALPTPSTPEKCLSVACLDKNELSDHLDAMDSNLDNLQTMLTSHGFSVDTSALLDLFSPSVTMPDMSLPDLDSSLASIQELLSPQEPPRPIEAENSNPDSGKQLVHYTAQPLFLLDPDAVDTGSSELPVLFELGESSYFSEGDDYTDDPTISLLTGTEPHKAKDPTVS

[22] = viability of PTEN-deleted HCT116 cells – cell-based, HCT116 PTEN knockout, dose response (AID 1047); type: functional;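 also: HCT116 colon tumor cells with PTEN knocked out; cells exposed to compound for 60 hours before readout; potency for loss of cell viability measured by luminescence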
[23] = target: Heat shock protein HSP 90-alpha (Homo sapiens, UniProt P07900); type: functional, organism-based
[24] = non-specific 3'UTR reporter inhibition in Clone20-Shn3RL – cell-based, Renilla luciferase, cherry-picked, counter-screen for Shn3 inhibitor project, dose response (AID 624133); type: functional
[25] = viability of HCT116 lacking mutant beta-catenin – cell-based, human colon tumor, dose response (AID 1045); type: functional;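 also: HCT116 colon tumor cells with beta catenin knocked out; cells exposed to compound for 60 hours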
Cytochrome P450 2D6 = Cytochrome P450 2D6 (Homo sapiens, UniProt P10635);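 also: CYP2D6 member of a cytochrome P450 panel assay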
Cytochrome P450 2D6, sequence (P10635 whole entry): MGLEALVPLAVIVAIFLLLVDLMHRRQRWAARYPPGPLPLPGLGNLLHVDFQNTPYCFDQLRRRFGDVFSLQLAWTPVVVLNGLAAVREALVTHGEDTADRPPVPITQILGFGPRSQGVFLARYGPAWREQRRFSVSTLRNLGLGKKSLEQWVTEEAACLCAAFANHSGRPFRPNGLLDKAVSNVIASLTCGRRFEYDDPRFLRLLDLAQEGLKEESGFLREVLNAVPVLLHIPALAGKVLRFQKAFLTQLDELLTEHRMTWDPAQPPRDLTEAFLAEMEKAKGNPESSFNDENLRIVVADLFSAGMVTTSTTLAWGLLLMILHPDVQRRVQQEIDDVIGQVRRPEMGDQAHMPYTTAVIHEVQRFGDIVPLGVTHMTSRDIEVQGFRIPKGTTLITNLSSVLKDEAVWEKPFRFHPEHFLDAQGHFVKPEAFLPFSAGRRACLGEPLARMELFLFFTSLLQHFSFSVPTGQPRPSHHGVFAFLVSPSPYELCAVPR

Bcl-2-related protein A1 = target: T4, Bcl-2-related protein A1 (Mus musculus, UniProt Q07440); type: functional;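 also: confirmatory dose–response counterscreen on Bfl-1, used to check hits from a UBC13 polyubiquitin inhibitor campaign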
T4 sequence (Q07440 whole entry): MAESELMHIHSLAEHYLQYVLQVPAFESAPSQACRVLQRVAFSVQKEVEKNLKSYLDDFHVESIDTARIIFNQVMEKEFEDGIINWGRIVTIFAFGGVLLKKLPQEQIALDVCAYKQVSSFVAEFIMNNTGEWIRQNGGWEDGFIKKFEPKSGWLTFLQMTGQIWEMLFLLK

[26] = target: T5, Ubiquitin-conjugating enzyme E2 N (Homo sapiens, UniProt P61088); type: functional
T5 sequence (P61088 whole entry): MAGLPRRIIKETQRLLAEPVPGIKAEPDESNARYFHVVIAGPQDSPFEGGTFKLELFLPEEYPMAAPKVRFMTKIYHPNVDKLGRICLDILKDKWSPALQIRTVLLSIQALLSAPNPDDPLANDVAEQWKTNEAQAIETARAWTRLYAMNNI

[27] = target: T5, Ubiquitin-conjugating enzyme E2 N; type: functional; remark: listed apart in the source

| Structure (SMILES) | EC50 [3] | IC50 (cells) | EC50 [4] | EC50 [6] | EC50 (BJ [7]) | EC50 (BJ [8]) | EC50 [9] | EC50 (BJ [10]) | AC50 (INS1) | CC50 [11] | CC50 [12] | CC50 [15] | EC50 (BJ [16]) | IC50 (Coagulation factor XII) | further results |
| --- | --- | --- | --- | --- | --- | --- | --- | --- | --- | --- | --- | --- | --- | --- | --- |
| O=C(N/N=C/c1ccc([N+](=O)[O-])o1)c1cc2ccccc2o1 | > 60 µM (not active) | 1.85 µM (active) | > 120 µM (not active) | > 120 µM (not active) | 4.63 µM (inconclusive) | 21.2 µM (active) | 23.8 µM (active) | 14.1 µM (inconclusive) | 2.63 µM (active) | > 20 µM (active) | 22 µM (active) | 17 µM (active) | 10.7 µM (active) |  | AC50 [1]: 5.99 µM (active); IC50 (HEK293 [2]): 16.1 µM (active); IC50 (HEK293 [5]): > 20 µM (inactive); EC50 (HEK293 [13]): 7.3 µM (active); EC50 [14]: 10.5 µM (active); IC50 (HEK293 [17]): > 20 µM (inactive); IC50 (HEK293 [18]): 17.8 µM (inactive) |
| COc1ccccc1CC(=O)NCc1csc(-c2cccs2)n1 |  |  |  |  |  |  |  |  |  |  |  |  |  | > 50 µM (inactive) |  |
| CN(/N=C/c1ccc2c(c1)OCO2)c1nc(N2CCOCC2)nc(N2CCOCC2)n1 |  |  |  |  |  |  |  |  |  |  |  |  |  | > 50 µM (inactive) |  |
| Cn1c(/C=C/c2ccc([N+](=O)[O-])o2)nc2ccccc2c1=O | > 120 µM (not active) | 0.78 µM (active) | > 120 µM (not active) | > 120 µM (not active) | 1.35 µM (active) | 4.06 µM (active) | 3.02 µM (active) | 2.75 µM (inconclusive) | 2.55 µM (active) | 6.22 µM (active) | 1.44 µM (active) | 2.67 µM (active) | 3.51 µM (inconclusive) |  | AC50 [19]: 2.37 µM (active); AC50 [20]: 10.6 µM (active); AC50 (Cytochrome P450 3A4): 25.1 µM (inconclusive); EC50 [21]: > 260 µM (inconclusive); EC50 [22]: < 0.059 µM (active); AC50 [23]: 5 µM (active); AC50 [24]: 7 µM (active); EC50 [25]: < 0.059 µM (active); AC50 (Cytochrome P450 2D6): 17.8 µM (inconclusive) |
| Cc1sc2nc(C(C)Nc3ccccc3N3CCOCC3)[nH]c(=O)c2c1C (configuration not stated) |  |  |  |  |  |  |  |  |  |  |  |  |  |  | IC50 (Bcl-2-related protein A1): > 20 µM (inactive); IC50 [26]: 9.08 µM (active); IC50 [27]: 16.5 µM (active) |
